Data published in ChEMBL document CHEMBL2163206, “New nitrogen containing substituents at the indole-2-carboxamide yield high potent and broad spectrum indolylarylsulfone HIV-1 non-nucleoside reverse transcriptase inhibitors” (J Med Chem, 2012).

Experiments:
[1] = Cytotoxicity against mock-infected human MT4 cells measured after 5 days by MTT assay; format: cell-based
[2] = tested on: Human immunodeficiency virus 1; assay: Antiviral activity against HIV1 NL4-3 infected in human MT4 cells assessed as inhibition of virus-induced cytopathicity measured 5 days post infection by MTT assay; format: functional, organism-based; conditions: Human immunodeficiency virus 1, NL4-3, MT4, 120 h
[3] = in vitro; conditions: human
Description: Selectivity index, ratio of CC50 for mock-infected human MT4 cells to EC50 for HIV1 NL4-3 infected in human MT4 cells

[4] = biological target: Human immunodeficiency virus type 1 reverse transcriptase (Human immunodeficiency virus 1, UniProt Q72547, L100I); assay: Inhibition of HIV1 reverse transcriptase L100I mutant RNA-dependent DNA polymerase activity using poly(rA)/oligo(dT)10:1 and [3H]-dTTP substrate
[5] = biological target: Human immunodeficiency virus type 1 reverse transcriptase (Human immunodeficiency virus 1, UniProt Q72547, K103N); assay: Inhibition of HIV1 reverse transcriptase K103N mutant RNA-dependent DNA polymerase activity using poly(rA)/oligo(dT)10:1 and [3H]-dTTP substrate
[6] = biological target: Human immunodeficiency virus type 1 reverse transcriptase (Human immunodeficiency virus 1, UniProt Q72547); assay: Inhibition of wild type HIV1 reverse transcriptase RNA-dependent DNA polymerase activity using poly(rA)/oligo(dT)10:1 and [3H]-dTTP substrate
[7] = tested on: Human immunodeficiency virus 2; assay: Antiviral activity against HIV2 infected in human PBMCs assessed as inhibition of p24 antigen production by ELISA; format: functional, organism-based
[8] = tested on: Human immunodeficiency virus 1; assay: Antiviral activity against HIV1 NL4-3 infected in human PBMCs assessed as inhibition of p24 antigen production by ELISA; format: functional, organism-based; conditions: Human immunodeficiency virus 1, NL4-3
[9] = tested on: Human immunodeficiency virus 1; format: functional, organism-based; conditions: Human immunodeficiency virus 1, IRLL98, MT4, 120 h
[10] = tested on: Human immunodeficiency virus 1; assay: Potency index, ratio of EC50 for Efavirenz to EC50 for compound against HIV1 containing reverse transcriptase K103N mutant infected in human MT4 cells assessed as inhibition of virus-induced cytopathicity measured 5 days post infection by MTT assay; format: functional
[11] = tested on: Human immunodeficiency virus 1; format: functional, organism-based; conditions: Human immunodeficiency virus 1, MT4, 120 h
[12] = tested on: Human immunodeficiency virus 1; assay: Antiviral activity against HIV1 containing reverse transcriptase K103N mutant infected in human MT4 cells assessed as inhibition of virus-induced cytopathicity measured 5 days post infection by MTT assay; format: functional, organism-based; conditions: Human immunodeficiency virus 1, MT4, 120 h
[13] = tested on: Human immunodeficiency virus 1; assay: microbe, parasite or virus in culture; conditions: Human immunodeficiency virus 1, clade G (BCF-DIOUM)
Description: Antiviral activity against HIV1 clade G (BCF-DIOUM) infected in human PBMCs assessed as inhibition of p24 antigen production by ELISA

[14] = tested on: Human immunodeficiency virus 1; assay: microbe, parasite or virus in culture; conditions: Human immunodeficiency virus 1, clade F (BZ162)
Description: Antiviral activity against HIV1 clade F (BZ162) infected in human PBMCs assessed as inhibition of p24 antigen production by ELISA

[15] = tested on: Human immunodeficiency virus 1; assay: microbe, parasite or virus in culture; conditions: Human immunodeficiency virus 1, clade B (BaL)
Description: Antiviral activity against HIV1 clade B (BaL) infected in human PBMCs assessed as inhibition of p24 antigen production by ELISA

[16] = tested on: Human immunodeficiency virus 1; assay: microbe, parasite or virus in culture; conditions: Human immunodeficiency virus 1, clade A (UG273)
Description: Antiviral activity against HIV1 clade A (UG273) infected in human PBMCs assessed as inhibition of p24 antigen production by ELISA

[17] = tested on: Human immunodeficiency virus 1; assay: microbe, parasite or virus in culture; conditions: Human immunodeficiency virus 1, MT4, 120 h
Description: Antiviral activity against HIV1 containing reverse transcriptase Y188L mutant infected in human MT4 cells assessed as inhibition of virus-induced cytopathicity measured 5 days post infection by MTT assay

[18] = tested on: Human immunodeficiency virus 1; assay: microbe, parasite or virus in culture; conditions: Human immunodeficiency virus 1, clade A/E (ID12)
Description: Antiviral activity against HIV1 clade A/E (ID12) infected in human PBMCs assessed as inhibition of p24 antigen production by ELISA

[19] = tested on: Human immunodeficiency virus 1; assay: microbe, parasite or virus in culture; conditions: Human immunodeficiency virus 1, clade C (SM145)
Description: Antiviral activity against HIV1 clade C (SM145) infected in human PBMCs assessed as inhibition of p24 antigen production by ELISA

[20] = tested on: Human immunodeficiency virus 1; assay: microbe, parasite or virus in culture; conditions: Human immunodeficiency virus 1, clade C (DJ259)
Description: Antiviral activity against HIV1 clade C (DJ259) infected in human PBMCs assessed as inhibition of p24 antigen production by ELISA

[21] = tested on: Human immunodeficiency virus 1; assay: microbe, parasite or virus in culture; conditions: Human immunodeficiency virus 1, clade D (UG270)
Description: Antiviral activity against HIV1 clade D (UG270) infected in human PBMCs assessed as inhibition of p24 antigen production by ELISA

Row | SMILES | CC50 at 120 h [1] | EC50 [2] | selectivity ratio [3] | IC50 [4] | IC50 [5] | IC50 [6] | EC50 [11] | EC50 [12] | EC50 [17] | also measured
1 | Cc1cc(C)cc(S(=O)(=O)c2c(C(=O)NC(C)C(N)=O)[nH]c3ccc(Cl)cc23)c1 (racemic) | 6040 nM | 2 nM | 3020 | – | – | – | – | – | – | –
2 | Cc1cc(C)cc(S(=O)(=O)c2c(C(=O)NCCc3ccccn3)[nH]c3ccc(Cl)cc23)c1 | > 10700 nM | 2 nM | > 5340 | – | – | – | – | – | – | –
3 | Cc1cc(C)cc(S(=O)(=O)c2c(C(=O)NCc3ccncc3)[nH]c3ccc(Cl)cc23)c1 | > 11000 nM | 2 nM | > 5510 | 11 nM | 45 nM | 21 nM | 2.2 nM | 8.8 nM | 22 nM | EC50 [7]: > 200 nM; EC50 [8]: 0.4 nM; EC50 [9]: 1 nM; Ratio EC50 [10]: 8; EC50 [13]: 1.7 nM; EC50 [14]: 0.6 nM; EC50 [15]: 0.1 nM; EC50 [16]: 0.6 nM; EC50 [18]: 0.6 nM; EC50 [19]: 0.3 nM; EC50 [20]: 0.4 nM; EC50 [21]: 0.4 nM
4 | Cc1cc(C)cc(S(=O)(=O)c2c(C(=O)NCc3cccnc3)[nH]c3ccc(Cl)cc23)c1 | > 11000 nM | 2.2 nM | > 5010 | 8 nM | 32 nM | 20 nM | 8.8 nM | 37.8 nM | 44 nM | –
5 | Cc1cc(C)cc(S(=O)(=O)c2c(C(=O)Nc3ccccc3C#N)[nH]c3ccc(Cl)cc23)c1 | > 10800 nM | 2 nM | > 5390 | – | – | – | – | – | – | –
6 | O=C1Nc2ccc(Cl)cc2[C@@](C#CC2CC2)(C(F)(F)F)O1 [EFAVIRENZ] | > 15800 nM | 6.3 nM | – | – | – | – | 158 nM | 69.3 nM | – | EC50 [9]: 980 nM
7 | Cc1ccnc2c1NC(=O)c1cccnc1N2C1CC1 [NEVIRAPINE] | > 18800 nM | 1500 nM | – | – | – | – | > 3760 nM | > 3760 nM | > 3760 nM | EC50 [9]: > 18900 nM
8 | Cc1cc(C)cc(S(=O)(=O)c2c(C(=O)NCc3ccccn3)[nH]c3ccc(Cl)cc23)c1 | > 11000 nM | 2 nM | > 5510 | – | – | – | – | – | – | –
9 | Cc1cn([C@H]2C[C@H](N=[N+]=[N-])[C@@H](CO)O2)c(=O)[nH]c1=O [ZIDOVUDINE] | > 18700 nM | 7.8 nM | > 2400 | – | – | – | 1.6 nM | 15.6 nM | 11.7 nM | EC50 [9]: 3.8 nM
10 | Cc1cc(C)cc(S(=O)(=O)c2c(C(=O)NCCc3ccncc3)[nH]c3ccc(Cl)cc23)c1 | > 10700 nM | 2 nM | > 5340 | – | – | – | – | – | – | –
11 | Cc1cc(C)cc(S(=O)(=O)c2c(C(=O)NCc3ccnc4ccccc34)[nH]c3ccc(Cl)cc23)c1 | > 9920 nM | 12 nM | > 827 | – | – | – | – | – | – | –
12 | Cc1nnc(C(C)C)n1[C@H]1C[C@H]2CC[C@@H](C1)N2CC[C@H](NC(=O)C1CCC(F)(F)CC1)c1ccccc1 (relative stereo) [MARAVIROC] | – | – | – | – | – | – | – | – | – | EC50 [13]: 1 nM; EC50 [14]: 1 nM; EC50 [15]: 1 nM; EC50 [16]: 1 nM; EC50 [18]: 1 nM; EC50 [19]: 1 nM; EC50 [20]: 1 nM; EC50 [21]: 1 nM
13 | Cc1cc(C)cc(S(=O)(=O)c2c(C(=O)NCCc3cccnc3)[nH]c3ccc(Cl)cc23)c1 | > 10700 nM | 2.1 nM | > 5090 | 24 nM | 162 nM | 40 nM | 6.3 nM | 27.3 nM | 504 nM | –
14 | Cc1cc(C)cc(S(=O)(=O)c2c(C(=O)NCc3ccc(C#N)cc3)[nH]c3ccc(Cl)cc23)c1 | > 10500 nM | 1.5 nM | > 6970 | > 4 nM | > 10 nM | > 10 nM | 32.1 nM | 118 nM | > 10700 nM | –
15 | Cc1cc(C)cc(S(=O)(=O)c2c(C(=O)Nc3cccc(C#N)c3)[nH]c3ccc(Cl)cc23)c1 | > 10800 nM | 2.2 nM | > 4900 | 287 nM | > 40 nM | 506 nM | 44 nM | 19.8 nM | 1390 nM | –
16 | Cc1cc(C)cc(S(=O)(=O)c2c(C(=O)Nc3ccc(C#N)cc3)[nH]c3ccc(Cl)cc23)c1 | > 10800 nM | 11 nM | > 980 | – | – | – | – | – | – | –
